Measurements as given in patent US11267822B2, “BET bromodomain protein degraders with cleavable linkers” (THE REGENTS OF THE UNIVERSITY OF MICHIGAN, priority 2017, dated 2022).

system: MOLM13; test: Cell growth inhibition, CellTiter-Glo Luminescent Cell Viability Assay, MOLM13; format: cell-based; conditions: Homo sapiens, MOLM-13, 96 h, MOLM13 cells, 4 days
Description: (§1) Cell growth inhibitory activity of representative Compounds of the Disclosure was determined using the CellTiter-Glo® Luminescent Cell Viability Assay. Cells were seeded in 384-well white opaque cell culture plates at a density of 2,000 cells/well with serially diluted compounds and incubated at 37° C. in an atmosphere of 95% air and 5% CO2 for 4 days. Cell viability was determined using the CellTiter-Glo® Luminescent Cell Viability Assay Kit (Promega, Madison, Wis.) according to the manufacture's instruction. Briefly, a volume of CellTiter-Glo® Reagent equal to the volume of cell culture medium was added to each well, and then the plates were incubated at room temperature for 10-20 minutes. The luminescent signal was measured using a Tecan Infinite M1000 multimode microplate reader (Tecan, Morrisville, N.C.). The half maximal inhibitory concentration (IC50) in Table 3 was calculated using the GraphPad Prism 5 software (GraphPad Software, La Jolla, Calif.).

SMILES | IC50 [nM]
Cc1nnc2n1-c1sc(C#Cc3cnn(CCCC(=O)OCCCNc4cccc5c4CN(C4CCC(=O)NC4=O)C5=O)c3)c(Cc3ccccc3)c1COC2 (stereo not drawn) [Cpd. No. 18, 3-((2-(2,6-dioxopiperidin-3-yl)-1-oxoisoindolin-4-yl)amino)propyl 4-(4-((3-benzyl-9-methyl-4H,6H-thieno[2,3-e][1,2,4]triazolo[3,4-c][1,4]oxazepin-2-yl)ethynyl)-1H-pyrazol-1-yl)butanoate] | 7.3
Cc1nnc2n1-c1sc(C#Cc3cnn(CCCOC(=O)CCCCc4cccc5c4CN(C4CCC(=O)NC4=O)C5=O)c3)c(Cc3ccccc3)c1COC2 (stereo not drawn) [compound 19, 3-(4-((3-benzyl-9-methyl-4H,6H-thieno[2,3-e][1,2,4]triazolo[3,4-c][1,4]oxazepin-2-yl)ethynyl)-1H-pyrazol-1-yl)propyl 5-(2-(2,6-dioxopiperidin-3-yl)-1-oxoisoindolin-4-yl)pentanoate] | 7.3
Cc1nnc2n1-c1sc(C#Cc3cnn(CCCOC(=O)CCCc4cccc5c4CN(C4CCC(=O)NC4=O)C5=O)c3)c(Cc3ccccc3)c1COC2 (stereo not drawn) [compound 20, 3-(4-((3-benzyl-9-methyl-4H,6H-thieno[2,3-e][1,2,4]triazolo[3,4-c][1,4]oxazepin-2-yl)ethynyl)-1H-pyrazol-1-yl)propyl 4-(2-(2,6-dioxopiperidin-3-yl)-1-oxoisoindolin-4-yl)butanoate] | 22.6
Cc1nnc2n1-c1sc(C#Cc3cnn(CCCC(=O)OCCCN4CCN(c5cccc6c5C(=O)N(C5CCC(=O)NC5=O)C6=O)CC4)c3)c(Cc3ccccc3)c1COC2 (stereo not drawn) [compound 24, 3-(4-(2-(2,6-dioxopiperidin-3-yl)-1,3-dioxoisoindolin-4-yl)piperazin-1-yl)propyl 4-(4-((3-benzyl-9-methyl-4H,6H-thieno[2,3-e][1,2,4]triazolo[3,4-c][1,4]oxazepin-2-yl)ethynyl)-1H-pyrazol-1-yl)butanoate] | 17.6
Cc1nnc2n1-c1sc(C#Cc3cnn(CCCC(=O)OCCCCc4cccc5c4CN(C4CCC(=O)NC4=O)C5=O)c3)c(Cc3ccccc3)c1COC2 (stereo not drawn) [compound 35, 4-(2-(2,6-dioxopiperidin-3-yl)-1-oxoisoindolin-4-yl)butyl 4-(4-((3-benzyl-9-methyl-4H,6H-thieno[2,3-e][1,2,4]triazolo[3,4-c][1,4]oxazepin-2-yl)ethynyl)-1H-pyrazol-1-yl)butanoate] | 4.9
Cc1nnc2n1-c1sc(C#Cc3cnn(CCCC(=O)OCCCc4cccc5c4CN(C4CCC(=O)NC4=O)C5=O)c3)c(Cc3ccccc3)c1COC2 (stereo not drawn) [compound 36, 3-(2-(2,6-dioxopiperidin-3-yl)-1-oxoisoindolin-4-yl)propyl 4-(4-((3-benzyl-9-methyl-4H,6H-thieno[2,3-e][1,2,4]triazolo[3,4-c][1,4]oxazepin-2-yl)ethynyl)-1H-pyrazol-1-yl)butanoate] | 4.6
Cc1nnc2n1-c1sc(C#Cc3cnn(CC(=O)OCCCOc4cccc5c4CN(C4CCC(=O)NC4=O)C5=O)c3)c(Cc3ccccc3)c1COC2 (stereo not drawn) [compound 37, 3-((2-(2,6-dioxopiperidin-3-yl)-1-oxoisoindolin-4-yl)oxy)propyl 2-(4-((3-benzyl-9-methyl-4H,6H-thieno[2,3-e][1,2,4]triazolo[3,4-c][1,4]oxazepin-2-yl)ethynyl)-1H-pyrazol-1-yl)acetate] | 9.1

Continued, values first:

IC50 [nM] | SMILES
1.1 | Cc1c(C#Cc2cnn(CCCC(=O)OCCCN3CCC(Nc4cccc5c4CN(C4CCC(=O)NC4=O)C5=O)CC3)c2)sc2c1C(c1ccc(Cl)cc1)=N[C@@H](CC(=O)N1CCN(C)CC1)c1nnc(C)n1-2 (stereo partly drawn) [Cpd. No. 1, 3-(4-((2-(2,6-dioxopiperidin-3-yl)-1-oxoisoindolin-4-yl)amino)piperidin-1-yl)propyl 4-(4-(((S)-4-(4-chlorophenyl)-3,9-dimethyl-6-(2-(4-methylpiperazin-1-yl)-2-oxoethyl)-6H-thieno[3,2-f][1,2,4]triazolo[4,3-a][1,4]diazepin-2-yl)ethynyl)-1H-pyrazol-1-yl)butanoate]
0.1 | Cc1c(C#Cc2cnn(CCCC(=O)OCCCOc3cccc4c3CN(C3CCC(=O)NC3=O)C4=O)c2)sc2c1C(c1ccc(Cl)cc1)=N[C@@H](C)c1nnc(C)n1-2 (stereo partly drawn) [Cpd. No. 5, 3-((2-(2,6-dioxopiperidin-3-yl)-1-oxoisoindolin-4-yl)oxy)propyl 4-(4-(((S)-4-(4-chlorophenyl)-3,6,9-trimethyl-6H-thieno[3,2-f][1,2,4]triazolo[4,3-a][1,4]diazepin-2-yl)ethynyl)-1H-pyrazol-1-yl)butanoate]
0.2 | Cc1c(C#Cc2cnn(CCCC(=O)OCCCOc3cccc4c3CN(C3CCC(=O)NC3=O)C4=O)c2)sc2c1C(c1ccc(Cl)cc1)=N[C@@H](CC(=O)N1CCN(C)CC1)c1nnc(C)n1-2 (stereo partly drawn) [compound 9, 3-((2-(2,6-dioxopiperidin-3-yl)-1-oxoisoindolin-4-yl)oxy)propyl 4-(4-(((S)-4-(4-chlorophenyl)-3,9-dimethyl-6-(2-(4-methylpiperazin-1-yl)-2-oxoethyl)-6H-thieno[3,2-f][1,2,4]triazolo[4,3-a][1,4]diazepin-2-yl)ethynyl)-1H-pyrazol-1-yl)butanoate]
4 | Cc1c(C#Cc2cnn(CCCC(=O)OCCOCCOCCOc3cccc4c3CN(C3CCC(=O)NC3=O)C4=O)c2)sc2c1C(c1ccc(Cl)cc1)=N[C@@H](CC(=O)N1CCN(C)CC1)c1nnc(C)n1-2 (stereo partly drawn) [compound 10, 2-(2-(2-((2-(2,6-dioxopiperidin-3-yl)-1-oxoisoindolin-4-yl)oxy)ethoxy)ethoxy)ethyl 4-(4-(((S)-4-(4-chlorophenyl)-3,9-dimethyl-6-(2-(4-methylpiperazin-1-yl)-2-oxoethyl)-6H-thieno[3,2-f][1,2,4]triazolo[4,3-a][1,4]diazepin-2-yl)ethynyl)-1H-pyrazol-1-yl)butanoate]

same assay, conditions: MOLM13 cells, 4 days

IC50 [nM] | SMILES
17.3 | Cc1c(C#Cc2cnn(CC(=O)OCC#Cc3cccc4c3CN(C3CCC(=O)NC3=O)C4=O)c2)sc2c1C(c1ccc(Cl)cc1)=N[C@@H](C)c1nnc(C)n1-2 (stereo partly drawn) [Cpd. No. 4, 3-(2-(2,6-dioxopiperidin-3-yl)-1-oxoisoindolin-4-yl)prop-2-yn-1-yl 2-(4-(((S)-4-(4-chlorophenyl)-3,6,9-trimethyl-6H-thieno[3,2-f][1,2,4]triazolo[4,3-a][1,4]diazepin-2-yl)ethynyl)-1H-pyrazol-1-yl)acetate]

system: MDA-MB-231; test: Cell growth inhibition, CellTiter-Glo Luminescent Cell Viability Assay, MDA-MB-231; format: cell-based; conditions: Homo sapiens, MDA-MB-231, 96 h, MDA-MB-231 cells, 4 days
Description: as §1

SMILES | IC50 [nM]
Cc1nnc2n1-c1sc(C#Cc3cnn(CCCC(=O)OCCOCCN4CCC(Nc5cccc6c5CN(C5CCC(=O)NC5=O)C6=O)CC4)c3)c(Cc3ccccc3)c1COC2 (stereo not drawn) [compound 26, 2-(2-(4-((2-(2,6-dioxopiperidin-3-yl)-1-oxoisoindolin-4-yl)amino)piperidin-1-yl)ethoxy)ethyl 4-(4-((3-benzyl-9-methyl-4H,6H-thieno[2,3-e][1,2,4]triazolo[3,4-c][1,4]oxazepin-2-yl)ethynyl)-1H-pyrazol-1-yl)butanoate] | 24.1
Cc1nnc2n1-c1sc(C#Cc3cnn(CCCC(=O)OCCOCCOCCN4CCC(Nc5cccc6c5CN(C5CCC(=O)NC5=O)C6=O)CC4)c3)c(Cc3ccccc3)c1COC2 (stereo not drawn) [compound 27, 2-(2-(2-(4-((2-(2,6-dioxopiperidin-3-yl)-1-oxoisoindolin-4-yl)amino)piperidin-1-yl)ethoxy)ethoxy)ethyl 4-(4-((3-benzyl-9-methyl-4H,6H-thieno[2,3-e][1,2,4]triazolo[3,4-c][1,4]oxazepin-2-yl)ethynyl)-1H-pyrazol-1-yl)butanoate] | 23.3
Cc1nnc2n1-c1sc(C#Cc3cnn(CC(=O)OCC#Cc4cccc5c4CN(C4CCC(=O)NC4=O)C5=O)c3)c(Cc3ccccc3)c1COC2 (stereo not drawn) [compound 39, 3-(2-(2,6-dioxopiperidin-3-yl)-1-oxoisoindolin-4-yl)prop-2-yn-1-yl 2-(4-((3-benzyl-9-methyl-4H,6H-thieno[2,3-e][1,2,4]triazolo[3,4-c][1,4]oxazepin-2-yl)ethynyl)-1H-pyrazol-1-yl)acetate] | > 100
Cc1nnc2n1-c1sc(C#Cc3cnn(CC(=O)OCCC#Cc4cccc5c4CN(C4CCC(=O)NC4=O)C5=O)c3)c(Cc3ccccc3)c1COC2 (stereo not drawn) [compound 40, 4-(2-(2,6-dioxopiperidin-3-yl)-1-oxoisoindolin-4-yl)but-3-yn-1-yl 2-(4-((3-benzyl-9-methyl-4H,6H-thieno[2,3-e][1,2,4]triazolo[3,4-c][1,4]oxazepin-2-yl)ethynyl)-1H-pyrazol-1-yl)acetate] | 24.3

The next lines start with the values.

IC50 [nM] | SMILES
2.5 | Cc1c(C#Cc2cnn(CCCC(=O)OCCCN3CCC(Nc4cccc5c4CN(C4CCC(=O)NC4=O)C5=O)CC3)c2)sc2c1C(c1ccc(Cl)cc1)=N[C@@H](CC(=O)N1CCN(C)CC1)c1nnc(C)n1-2 (stereo partly drawn) [Cpd. No. 1, 3-(4-((2-(2,6-dioxopiperidin-3-yl)-1-oxoisoindolin-4-yl)amino)piperidin-1-yl)propyl 4-(4-(((S)-4-(4-chlorophenyl)-3,9-dimethyl-6-(2-(4-methylpiperazin-1-yl)-2-oxoethyl)-6H-thieno[3,2-f][1,2,4]triazolo[4,3-a][1,4]diazepin-2-yl)ethynyl)-1H-pyrazol-1-yl)butanoate]
0.1 | Cc1c(C#Cc2cnn(CCCC(=O)OCCCOc3cccc4c3CN(C3CCC(=O)NC3=O)C4=O)c2)sc2c1C(c1ccc(Cl)cc1)=N[C@@H](C)c1nnc(C)n1-2 (stereo partly drawn) [Cpd. No. 5, 3-((2-(2,6-dioxopiperidin-3-yl)-1-oxoisoindolin-4-yl)oxy)propyl 4-(4-(((S)-4-(4-chlorophenyl)-3,6,9-trimethyl-6H-thieno[3,2-f][1,2,4]triazolo[4,3-a][1,4]diazepin-2-yl)ethynyl)-1H-pyrazol-1-yl)butanoate]
12.2 | Cc1c(C#Cc2cnn(CCCC(=O)OCCOCCN3CCC(Nc4cccc5c4CN(C4CCC(=O)NC4=O)C5=O)CC3)c2)sc2c1C(c1ccc(Cl)cc1)=N[C@@H](CC(=O)N1CCN(C)CC1)c1nnc(C)n1-2 (stereo partly drawn) [compound 13, 2-(2-(4-((2-(2,6-dioxopiperidin-3-yl)-1-oxoisoindolin-4-yl)amino)piperidin-1-yl)ethoxy)ethyl 4-(4-(((S)-4-(4-chlorophenyl)-3,9-dimethyl-6-(2-(4-methylpiperazin-1-yl)-2-oxoethyl)-6H-thieno[3,2-f][1,2,4]triazolo[4,3-a][1,4]diazepin-2-yl)ethynyl)-1H-pyrazol-1-yl)butanoate]
20.7 | Cc1c(C#Cc2cnn(CCCC(=O)OCCOCCOCCN3CCC(Nc4cccc5c4CN(C4CCC(=O)NC4=O)C5=O)CC3)c2)sc2c1C(c1ccc(Cl)cc1)=N[C@@H](CC(=O)N1CCN(C)CC1)c1nnc(C)n1-2 (stereo partly drawn) [compound 14, 2-(2-(2-(4-((2-(2,6-dioxopiperidin-3-yl)-1-oxoisoindolin-4-yl)amino)piperidin-1-yl)ethoxy)ethoxy)ethyl 4-(4-(((S)-4-(4-chlorophenyl)-3,9-dimethyl-6-(2-(4-methylpiperazin-1-yl)-2-oxoethyl)-6H-thieno[3,2-f][1,2,4]triazolo[4,3-a][1,4]diazepin-2-yl)ethynyl)-1H-pyrazol-1-yl)butanoate]

same assay, conditions: MDA-MB-231 cells, 4 days

IC50 [nM] | SMILES
276 | Cc1c(C#Cc2cnn(CC(=O)OCC#Cc3cccc4c3CN(C3CCC(=O)NC3=O)C4=O)c2)sc2c1C(c1ccc(Cl)cc1)=N[C@@H](C)c1nnc(C)n1-2 (stereo partly drawn) [Cpd. No. 4, 3-(2-(2,6-dioxopiperidin-3-yl)-1-oxoisoindolin-4-yl)prop-2-yn-1-yl 2-(4-(((S)-4-(4-chlorophenyl)-3,6,9-trimethyl-6H-thieno[3,2-f][1,2,4]triazolo[4,3-a][1,4]diazepin-2-yl)ethynyl)-1H-pyrazol-1-yl)acetate]
